From patent US20250074891A1 (Anaxis Pharma Pty Ltd., priority 2021, published 2025)

Target: MLKL (Homo sapiens (Human), UniProt Q8NB16)
Test: Binding to MLKL (KD), in vitro
Conditions: in vitro assays

MLKL, sequence (Q8NB16 whole entry): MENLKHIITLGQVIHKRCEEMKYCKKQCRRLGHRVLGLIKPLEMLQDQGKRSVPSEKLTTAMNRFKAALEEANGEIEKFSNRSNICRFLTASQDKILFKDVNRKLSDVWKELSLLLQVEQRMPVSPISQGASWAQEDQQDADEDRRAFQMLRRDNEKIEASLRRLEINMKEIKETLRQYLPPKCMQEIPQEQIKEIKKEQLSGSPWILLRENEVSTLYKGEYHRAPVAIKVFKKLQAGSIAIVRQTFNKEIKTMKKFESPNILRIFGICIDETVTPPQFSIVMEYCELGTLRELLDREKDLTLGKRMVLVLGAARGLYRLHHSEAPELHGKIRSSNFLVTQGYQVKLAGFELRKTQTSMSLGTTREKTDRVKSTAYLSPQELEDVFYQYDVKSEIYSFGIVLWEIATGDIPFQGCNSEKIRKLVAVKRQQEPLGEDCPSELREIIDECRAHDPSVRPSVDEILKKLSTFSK

Kd: ~2 µM
Compound: CCS(=O)(=O)Nc1ccc(-c2n[nH]c(Nc3ccc(C(=O)OCCCCC(=O)N[C@H](C(=O)N4C[C@H](O)C[C@H]4C(=O)NCc4ccc(-c5scnc5C)cc4)C(C)(C)C)cn3)c2C#N)cc1O[C@@H](C)c1ccc(F)cc1 [Compound 1061, 4-{[(2S)-1-[(2S,4R)-4-hydroxy-2-({[4-(4-methyl-1,3-thiazol-5-yl)phenyl]methyl}carbamoyl)pyrrolidin-1-yl]-3,3-dimethyl-1-oxobutan-2-yl]carbamoyl}butyl 6-[(4-cyano-3-{4-ethanesulfonamido-3-[(1S)-1-(4-fluorophenyl)ethoxy]phenyl}-1H-pyrazol-5-yl)amino]pyridine-3-carboxylate]
